Results reported in patent US20240309005A1 (priority 2021, published 2024).
Values after ≈ are worked out from the molar mass of the structure shown. Where a name gives a salt, the structure may show the parent alone.

Experiments:
[1] = physchem; conditions: 25 °C, kinetic from dmso stock
[2] = system: hERG / SGK1 (whole cell)
[3] = in vivo; conditions: male, CD1, mouse; for Cmax / bioavailability: po, 30 mg/kg
[4] = in vivo; conditions: male, SD, rat; for bioavailability / Cmax: po, 30 mg/kg; for Cmax: Cmax (ng/ml)

Row | SMILES | solubility at 2 h ([1]; pH 5, fessif) [µM] | solubility at 2 h ([1]; pH 7.4, aqueous buffer) [µM] | Cmax [3] [ng/mL] | bioavailability [3] [%] | half-life [3] [h] | half-life [4] [h] | bioavailability [4] [%] | Cmax [4] [ng/mL] | hERG/IC50 [2]
1 | Cc1n[nH]c2nc(-c3ccc(NS(=O)(=O)c4ccncc4F)cc3)nc(NCCN(C)C)c12 [Compound 15, N-[4-(4-[[2-(dimethylamino)ethyl]amino]-3-methyl-1H-pyrazolo[3,4-d]pyrimidin-6-yl)phenyl]-3-fluoropyridine-4-sulfonamide] | 289 (≈ 136 µg/mL) | 282 (≈ 133 µg/mL) |  |  |  |  |  |  | 4.7
2 | Cc1n[nH]c2nc(-c3ccc(NS(=O)(=O)c4cc(Cl)ccc4F)cc3)nc(NCCN(C)C=O)c12 [Compound 18, N-[2-([6-[4-(5-chloro-2-fluorobenzenesulfonamide)phenyl]-3-methyl-1H-pyrazolo[3,4-d]pyrimidin-4-yl]amino)ethyl]-N-methylformamide] | 268 (≈ 139 µg/mL) | 52 (≈ 26.9 µg/mL) | 2.3 | 0.5 |  |  |  |  | 
3 | Cc1n[nH]c2nc(-c3ccc(NS(=O)(=O)c4cc(C(F)(F)F)ccn4)cc3)nc(NCCN(C)C)c12 [Compound 30, N-(4-(4-((2-(dimethylamino)ethyl)amino)-3-methyl-1H-pyrazolo[3,4-d]pyrimidin-6-yl)phenyl)-4-(trifluoromethyl)pyridine-2-sulfonamide] | 276 (≈ 144 µg/mL) | 295 (≈ 154 µg/mL) | 548 | 18.8 | 4.4 |  |  |  | 
4 | Cc1n[nH]c2nc(-c3ccc(NS(=O)(=O)c4cc(Cl)ccc4F)c(F)c3)nc(NCCN(C)C)c12 [Compound 38, 5-chloro-N-(4-(4-((2-(dimethylamino)ethyl)amino)-3-methyl-1H-pyrazolo[3,4-d]pyrimidin-6-yl)-2-fluorophenyl)-2-fluorobenzenesulfonamide] | 298 (≈ 156 µg/mL) | 15.9 (≈ 8.3 µg/mL) | 2340 | 41 | 2.2 |  |  |  | 
5 | Cc1n[nH]c2nc(-c3ccc(NS(=O)(=O)c4cc(Cl)ccc4F)cc3)nc(O[C@@H]3CCN(CCO)C[C@@H]3F)c12 [Compound 50, 5-chloro-2-fluoro-N-[4-(4-{[(3S,4R)-3-fluoro-1-(2-hydroxyethyl)piperidin-4-yl]oxy}-3-methyl-1H-pyrazolo[3,4-d]pyrimidin-6-yl)phenyl]benzenesulfonamide] |  |  | 54.9 |  | 3.2 |  |  |  | 
6 | Cc1n[nH]c2nc(-c3ccc(NS(=O)(=O)c4cc(OC(C)C)ccn4)cc3)nc(NCCN(C)C)c12 [Compound 73, N-[4-(4-{[2-(dimethylamino)ethyl]amino}-3-methyl-1H-pyrazolo[3,4-d]pyrimidin-6-yl)phenyl]-4-isopropoxypyridine-2-sulfonamide] | 311 (≈ 159 µg/mL) | 265 (≈ 135 µg/mL) | 143 |  | 1.5 |  |  |  | 
7 | Cc1n[nH]c2nc(-c3ccc(NS(=O)(=O)c4cc(Cl)ccc4F)c(F)c3)nc(OC3CCN(C)CC3)c12 [Compound 79, 5-chloro-2-fluoro-N-(2-fluoro-4-{3-methyl-4-[(1-methylpiperidin-4-yl)oxy]-1H-pyrazolo[3,4-d]pyrimidin-6-yl}phenyl)benzenesulfonamide] | 321 (≈ 176 µg/mL) | 2.6 (≈ 1.43 µg/mL) | 3720 | 128 | 3 | 5.06 | 40.5 | 3400 | 
8 | Cc1n[nH]c2nc(-c3ccc(NS(=O)(=O)c4cc(Cl)ccc4F)cc3)nc(NCCN(C)CCOC(=O)C(C)(C)C)c12 [Compound 82, 2-{[2-({6-[4-(5-chloro-2-fluorobenzenesulfonamido)phenyl]-3-methyl-1H-pyrazolo[3,4-d]pyrimidin-4-yl}amino)ethyl](methyl)amino}ethyl 2,2-dimethylpropanoate] |  |  | 607 | 4.5 | 1.7 |  |  |  | 
9 | Cc1n[nH]c2nc(-c3ccc(NS(=O)(=O)c4cc(Cl)ccc4F)cc3)nc(NCCN(C)CCOC(=O)CC(C)C)c12 [Compound 83, 2-{[2-({6-[4-(5-chloro-2-fluorobenzenesulfonamido)phenyl]-3-methyl-1H-pyrazolo[3,4-d]pyrimidin-4-yl}amino)ethyl](methyl)amino}ethyl 3-methylbutanoate] |  |  | 788 | 4.9 | 2.4 |  |  |  | 
10 | COc1cc(-c2nc(NCCN(C)C)c3c(C)n[nH]c3n2)ccc1NS(=O)(=O)c1cc(F)ccc1F [Compound 96, N-[4-(4-{[2-(dimethylamino)ethyl]amino}-3-methyl-1H-pyrazolo[3,4-d]pyrimidin-6-yl)-2-methoxyphenyl]-2,5-difluorobenzenesulfonamide] |  |  |  |  |  | 3.3 | 24 | 267 | 
11 | Cc1n[nH]c2nc(-c3ccc(NS(=O)(=O)c4cc(OC(C)C)ccn4)c(Cl)c3)nc(NCCN(C)C)c12 [Compound 100, N-[2-chloro-4-(4-{[2-(dimethylamino)ethyl]amino}-3-methyl-1H-pyrazolo[3,4-d]pyrimidin-6-yl)phenyl]-4-isopropoxypyridine-2-sulfonamide] |  |  |  |  |  | 3.8 | 39.5 | 2480 | 
12 | Cc1n[nH]c2nc(-c3ccc(NS(=O)(=O)c4cc(Cl)ccc4F)c(Cl)c3)nc(OC3CCN(C)CC3)c12 [Compound 101, 5-chloro-N-(2-chloro-4-{3-methyl-4-[(1-methylpiperidin-4-yl)oxy]-1H-pyrazolo[3,4-d]pyrimidin-6-yl}phenyl)-2-fluorobenzenesulfonamide] |  |  |  |  |  | 3.8 | 75 | 8120 | 
13 | Cc1n[nH]c2nc(-c3ccc(NS(=O)(=O)c4cc(F)ccc4F)c(F)c3)nc(O[C@@H]3CCNC[C@@H]3F)c12 [Compound 155] |  |  |  |  |  | 7.5 | 5.3 | 283 | 
14 | Cc1n[nH]c2nc(-c3ccc(NS(=O)(=O)c4cc(F)ccc4F)c(Cl)c3)nc(O[C@@H]3CCNC[C@@H]3F)c12 [Compound 156, N-[2-chloro-4-(4-{[(3S,4R)-3-fluoropiperidin-4-yl]oxy}-3-methyl-1H-pyrazolo[3,4-d]pyrimidin-6-yl)phenyl]-2,5-difluorobenzenesulfonamide hydrochloride] |  |  |  |  |  | 5.2 | 12 | 548 | 

Second part, led by results:

Row | solubility at 2 h ([1]; pH 5, fessif) [µM] | solubility at 2 h ([1]; pH 7.4, aqueous buffer) [µM] | Cmax [3] [ng/mL] | bioavailability [3] [%] | half-life [3] [h] | half-life [4] [h] | bioavailability [4] [%] | Cmax [4] [ng/mL] | SMILES | hERG/IC50 [2]
15 |  |  | 16.8 | 0.75 | 2.2 |  |  |  | COc1ccc(F)c(S(=O)(=O)Nc2ccc(-c3nc(NCCN(C)CCO)c4c(C)n[nH]c4n3)cc2)c1 [Compound 77, 2-fluoro-N-{4-[4-({2-[(2-hydroxyethyl)(methyl)amino]ethyl}amino)-3-methyl-1H-pyrazolo[3,4-d]pyrimidin-6-yl]phenyl}-5-methoxybenzenesulfonamide] | 
16 | 75 (≈ 40.1 µg/mL) | 0.66 (≈ 0.353 µg/mL) | 40.9 | 3.1 | 26 | 4.9 | 6.7 | 354 | Cc1n[nH]c2nc(-c3ccc(NS(=O)(=O)c4cc(Cl)ccc4F)cc3)nc(OCCN(C)CCO)c12 [Compound 86, 5-chloro-2-fluoro-N-[4-(4-{2-[(2-hydroxyethyl)(methyl)amino]ethoxy}-3-methyl-1H-pyrazolo[3,4-d]pyrimidin-6-yl)phenyl]benzenesulfonamide] | 
17 | 290 | 0.6 | 1020 | 7.5 | 2 |  |  |  | CC(=O)OCCN(C)CCNc1nc(-c2ccc(NS(=O)(=O)c3cc(Cl)ccc3F)cc2)nc2[nH]nc(C)c12 [Compound 87, 2-[[2-([6-[4-(5-chloro-2-fluorobenzenesulfonamido)phenyl]-3-methyl-1H-pyrazolo[3,4-d]pyrimidin-4-yl]amino)ethyl](methyl)amino]ethyl acetate] | 
18 |  |  | 14.5 | 1.6 | 4.3 |  |  |  | Cc1n[nH]c2nc(-c3ccc(NS(=O)(=O)c4cc(Cl)ccc4F)cc3)nc(NCCN(C)CCOP(=O)(O)O)c12 [Compound 88, 2-{[2-({6-[4-(5-chloro-2-fluorobenzenesulfonamido)phenyl]-3-methyl-1H-pyrazolo[3,4-d]pyrimidin-4-yl}amino)ethyl](methyl)amino}ethoxyphosphonic acid] | 
19 |  |  | 1740 | 11 | 1.2 |  |  |  | Cc1n[nH]c2nc(-c3ccc(NS(=O)(=O)c4cc(Cl)ccc4F)cc3)nc(NCCN(C)CCOC(=O)C(C)C)c12 [Compound 89, 2-{[2-({6-[4-(5-chloro-2-fluorobenzenesulfonamido)phenyl]-3-methyl-1H-pyrazolo[3,4-d]pyrimidin-4-yl}amino)ethyl](methyl)amino}ethyl 2-methylpropanoate trifluoroacetic acid] | 
20 |  |  | 523 | 5.5 | 2.4 |  |  |  | CCC(=O)OCCN(C)CCNc1nc(-c2ccc(NS(=O)(=O)c3cc(Cl)ccc3F)cc2)nc2[nH]nc(C)c12 [Compound 90, 2-{[2-({6-[4-(5-chloro-2-fluorobenzenesulfonamido)phenyl]-3-methyl-1H-pyrazolo[3,4-d]pyrimidin-4-yl}amino)ethyl](methyl)amino}ethyl propanoate; bis(trifluoroacetic acid)] | 
21 |  |  | 319 | 2.2 | 4.5 |  |  |  | CCCC(=O)OCCN(C)CCNc1nc(-c2ccc(NS(=O)(=O)c3cc(Cl)ccc3F)cc2)nc2[nH]nc(C)c12 [Compound 91, 2-{[2-({6-[4-(5-chloro-2-fluorobenzenesulfonamido)phenyl]-3-methyl-1H-pyrazolo[3,4-d]pyrimidin-4-yl}amino)ethyl](methyl)amino}ethyl butanoate trifluoroacetic acid] | 
22 | 136 (≈ 70.5 µg/mL) | 1.61 (≈ 0.834 µg/mL) |  |  |  |  |  |  | Cc1n[nH]c2nc(-c3ccc(NS(=O)(=O)c4cc(Cl)ccc4F)cc3)nc(N(C)CCN(C)C)c12 [Compound 154, 5-chloro-N-(4-(4-((2-(dimethylamino)ethyl)(methyl)amino)-3-methyl-1H-pyrazolo[3,4-d]pyrimidin-6-yl)phenyl)-2-fluorobenzenesulfonamide] | 
